The record followed here is patent US9150592B2, “Heterocyclic nuclear hormone receptor modulators” (AbbVie Inc., priority 2012, dated 2015).

pIC50: −log10 of the molar value.

The subject of one assay is IL-6 in A549 cells stimulated with IL-1β. Nature of the assay: A549 Cell Assay to Measure Inflammation Markers (inhibition of IL-1β-induced IL-6). Format: cell-based. The following applies: A549 Cell Assay to Measure Inflammation Markers; intrinsic activity, Emax class ranges. The protocol: A549 Cell Assay to Measure Inflammation Markers
Further dilution (1:250) of compound was made into assay medium and 50 μL/well diluted drug or DMSO/media control was applied to cells. After a 1 h pre-incubation in a temperature, CO2, and humidity controlled incubator, set to 37° C., 50 μL/well of 4 ng/mL IL-1β diluted in assay media, was applied to cultures. Assay plates, with a final volume of 200 μL/well and final concentrations of 0.1% DMSO and 1 ng/mL IL-1β were returned to incubator for a […] incubation period. Next, plates were spun at 183 g (1000 rpm in Beckman/Coulter Allegra 6KR centrifuge) for 10 min. Cell-free supernatant (150 μL/well) was collected and IL-6 was measured by MSD kit, following protocol of manufacturer, and using MSD SECTOR Imager 6000 instrument. […] Results were represented as IC50 and Emax values.
With `Cc1cc(Cl)ccc1C1SCCNc2c1c(-c1ccccn1)nn2C` (single isomer, unassigned) [(4S)-4-(4-chloro-2-methyl-phenyl)-1-methyl-3-(2-pyridyl)-4,6], the “A549 Emax” value is reported as “B (a compound with Emax>60%)”.

Take `Cc1cc(Cl)ccc1C1SCC(C)Nc2c1c(-c1ccccn1)nn2C` (single isomer, unassigned) [(4S,7S)-4-(4-chloro-2-methylphenyl)-1,7-dimethyl-3-(pyridin-]: the “A549 Emax” value was “D (a compound with Emax<50%)”.

The assay is the same for the next values; noted with them: Homo sapiens, A549, A549 Cell Assay to Measure Inflammation Markers; intrinsic activity, Emax class ranges.
Regarding `Cc1cc(OCc2cccnc2)ccc1C1SCCNc2c1c(-c1ccccn1)nn2C` (centres unmarked), the Emax was < 50%. For `Cc1cc(OCc2cccnc2C)ccc1C1SCCNc2c1c(-c1ccccn1)nn2C` (centres unmarked), the Emax was < 50%. Still for that read-out and setting: the figure for `Cc1cc(S(C)(=O)=O)ccc1C1SCCNc2c1c(-c1ccccn1)nn2C` (centres unmarked) is < 50%; for `Cc1ccc(C2SCCNc3c2c(-c2ccccn2)nn3C)c(Cl)c1` (centres unmarked) it is < 50%; for `Cn1nc(-c2ccccn2)c2c1NCCSC2c1ccccc1Cl` (centres unmarked) it is < 50%. As for `CCc1cc(Cl)ccc1C1SCCNc2c1c(-c1ccccn1)nn2C` (centres unmarked), the Emax was > 50%. In the case of `C=Cc1cc(Cl)ccc1C1SCCNc2c1c(-c1ccccn1)nn2C` (centres unmarked), the Emax was > 60%.

In a further assay the target is T1, Glucocorticoid Receptor (GR) (Homo sapiens, UniProt P04150).
T1 construct: purchased Invitrogen P2893
T1 sequence (P04150 1-777): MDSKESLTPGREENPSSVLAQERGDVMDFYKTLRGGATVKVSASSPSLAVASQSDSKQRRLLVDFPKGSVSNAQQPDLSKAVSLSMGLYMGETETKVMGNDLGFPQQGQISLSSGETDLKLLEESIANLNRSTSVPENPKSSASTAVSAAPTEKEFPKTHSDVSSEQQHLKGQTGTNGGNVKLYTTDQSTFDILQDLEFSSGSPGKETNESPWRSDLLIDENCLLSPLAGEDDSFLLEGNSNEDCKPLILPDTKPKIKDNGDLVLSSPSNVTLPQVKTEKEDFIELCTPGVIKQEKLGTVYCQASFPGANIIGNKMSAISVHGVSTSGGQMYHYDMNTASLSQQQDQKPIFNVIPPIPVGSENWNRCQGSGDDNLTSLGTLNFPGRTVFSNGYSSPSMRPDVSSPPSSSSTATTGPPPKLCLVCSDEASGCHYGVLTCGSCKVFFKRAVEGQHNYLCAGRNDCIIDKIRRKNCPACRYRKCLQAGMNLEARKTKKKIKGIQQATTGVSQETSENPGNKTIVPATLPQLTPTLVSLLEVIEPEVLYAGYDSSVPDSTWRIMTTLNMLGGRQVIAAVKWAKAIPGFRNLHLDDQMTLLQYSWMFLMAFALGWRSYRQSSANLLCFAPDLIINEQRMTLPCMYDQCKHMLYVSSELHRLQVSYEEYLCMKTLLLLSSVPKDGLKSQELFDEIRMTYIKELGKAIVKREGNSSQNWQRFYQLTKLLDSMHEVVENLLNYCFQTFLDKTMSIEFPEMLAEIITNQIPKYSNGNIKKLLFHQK
Nature of the assay: GR Fluorescence Polarization Assay (PolarScreen Glucocorticoid Receptor Competitor Assay, Red). The following applies: IC50 class ranges, read-out: GR binding. The protocol: GR Fluorescence Polarization Assay
Fluorescence polarization assays were carried out using the PolarScreen™ Glucocorticoid Receptor Competitor Assay, Red from Invitrogen (P2893). The assay buffer was prepared according to the manufacturer's protocol and used to dilute the fluorescent glucocorticoid and GR. Compounds were prepared and serial diluted 1:4 in DMSO. Compound, fluorescent glucocorticoid and GR were added in a final volume of 20 μL and incubated overnight at 4° C. Fluorescent polarization was measured on the PerkinElmer Envision®.
Turning to `Cc1cc(OCc2cccnc2)ccc1C1SCCNc2c1c(-c1ccccn1)nn2C` (centres unmarked), the pIC50 is 6.00 to 7.00. Still for that read-out and setting: the figure for `Cc1cc(OCc2cccnc2C)ccc1C1SCCNc2c1c(-c1ccccn1)nn2C` (centres unmarked) is > 7.00; for `Cc1cc(S(C)(=O)=O)ccc1C1SCCNc2c1c(-c1ccccn1)nn2C` (centres unmarked) it is 6.00 to 7.00. For `Cc1ccc(C2SCCNc3c2c(-c2ccccn2)nn3C)c(Cl)c1` (centres unmarked), the pIC50 is > 7.00. Still for that read-out and setting: the figure for `Cn1nc(-c2ccccn2)c2c1NCCSC2c1ccccc1Cl` (centres unmarked) is > 7.00; for `CCc1cc(Cl)ccc1C1SCCNc2c1c(-c1ccccn1)nn2C` (centres unmarked) it is > 7.00. In the case of `C=Cc1cc(Cl)ccc1C1SCCNc2c1c(-c1ccccn1)nn2C` (centres unmarked), the pIC50 is > 7.00. Consider `Cn1nc(-c2ccc(F)cc2F)c2c1NCCSC2c1ccc(Cl)cc1Cl` (centres unmarked) [D.93], for which the pIC50 was 6.00 to 7.00.

For `Cn1nc(-c2ccc(OC(F)(F)F)cc2)c2c1NCCSC2c1ccc(Cl)cc1Cl` (centres unmarked) [D.95], the pIC50 is 5.00 to 6.00. Take `Cc1nn(C)c2c1C(c1ccccn1)SCCN2` (centres unmarked) [D.96]: the pIC50 is < 5.00.

`COc1ccc(C2SCCNc3c2c(C)nn3C)cc1` (centres unmarked) [D.97]: the pIC50 is 5.00 to 6.00. Turning to `COc1ccccc1C1SCCNc2c1c(C)nn2C` (centres unmarked) [D.98], the pIC50 was < 5.00. Same read-out and setting: the figure for `Cc1nn(C)c2c1C(c1cccnc1)SCCN2` (centres unmarked) [D.99] is < 5.00; for `Cc1nn(C)c2c1C(c1ccc(Cl)cc1)SC(CCO)CN2` (centres unmarked) [D.100] it is > 7.00. For `Cc1nn(C)c2c1C(c1cc[nH]n1)SCCN2` (centres unmarked) [D.102], the pIC50 is < 5.00. Same read-out and setting: the figure for `COC(=O)c1ccc(C2SCCNc3c2c(-c2ccccn2)nn3C)cc1` (centres unmarked) [E.2, methyl 4-[1-methyl-3-(2-pyridyl)-4,6,7,8-tetrahydropyrazolo[3,4-e][1,4]thiazepin-4-yl]benzoate] is 5.00 to 6.00. With `COC(=O)c1ccc(C2SC(C)(C)CNc3c2c(C)nn3C)c(C)c1` (centres unmarked) [E.4, methyl 3-methyl-4-(1,3,6,6-tetramethyl-7,8-dihydro-4H-pyrazolo[3,4-e][1,4]thiazepin-4-yl)benzoate], the pIC50 is 6.00 to 7.00. Regarding `COC(=O)c1ccc(-c2nn(C)c3c2C(c2ccc(Cl)cc2Cl)SCCN3)nc1` (centres unmarked) [E.6, methyl 6-[4-(2,4-dichlorophenyl)-1-methyl-4,6,7,8-tetrahydropyrazolo[3,4-e][1,4]thiazepin-3-yl]pyridine-3-carboxylate], the pIC50 is 5.00 to 6.00. On the same count and under the same terms, then `Cc1cc(C#N)ccc1C1SC(C)CNc2c1c(C)nn2C` (centres unmarked) [G.11], with 5.00 to 6.00; and `Cc1ccc(C(=O)Nc2cccnc2C)cc1C1SC(C)(C)CNc2c1c(C1CC1)nn2C` (centres unmarked) [H.2], with < 5.00.

`CNC(=O)c1ccc(C2SCCNc3c2c(-c2ccccn2)nn3C)c(Cl)c1` (centres unmarked) [I.2]: the pIC50 is 6.00 to 7.00. In the case of `CNC(=O)c1ccc(-c2nn(C)c3c2C(c2ccc(Cl)cc2Cl)SCCN3)nc1` (centres unmarked) [I.3], the pIC50 is 5.00 to 6.00. Consider `Cn1nc(-c2ccc(C(N)=O)cn2)c2c1NCCSC2c1ccc(Cl)cc1Cl` (centres unmarked) [I.5], for which the pIC50 is 5.00 to 6.00.

Consider `Cc1cc(Br)ccc1[C@H]1SC[C@@H](C)Nc2c1c(-c1nnco1)nn2C` [M.63, 2-(4-(4-bromo-2-methylphenyl)-1,7-dimethyl-4,6,7,8-tetrahydro-1H-pyrazolo[3,4-e][1,4]thiazepin-3-yl)-1,3,4-oxadiazole], for which the pIC50 was 6.00 to 7.00. For `Cc1cc(C(=O)Nc2cccnc2C)ccc1C1CCC(=O)Nc2c1c(C)nn2C` (centres unmarked) [O.1, 4-(1,3-Dimethyl-7-oxo-1,4,5,6,7,8-hexahydropyrazolo[3,4-b]azepin-4-yl)-3-methyl-N-(2-methylpyridin-3-yl)benzamide], the pIC50 is 5.00 to 6.00. For `CCn1nc(-c2ccccn2)c2c1N[C@@H](C)CS[C@H]2c1ccc(CCC(C)(C)N)cc1C` [Q.1], the pIC50 is 6.00 to 7.00. Regarding `CCn1nc(-c2ccccn2)c2c1NCCSC2c1ccc(C(=O)Nc2nnn[nH]2)cc1C` (centres unmarked) [S.6], the pIC50 was 6.00 to 7.00. On to `CCn1nc(-c2ccccn2)c2c1NCCSC2c1ccc(C(=O)Nc2onc(C)c2C#N)cc1C` (centres unmarked) [S.7], for which the pIC50 is 6.00 to 7.00. For the molecule `Cn1nc(-c2ccccn2)c2c1NCCSC2c1ccc(-c2cncc(S(C)(=O)=O)c2)cc1Cl` (centres unmarked) [U.1, 4-(2-Chloro-4-(5-(methylsulfonyl)pyridin-3-yl)phenyl)-1-methyl-3-(pyridin-2-yl)-4,6,7,8-tetrahydro-1H-pyrazolo[3,4-e][1,4]thiazepine tris(trifluoroacetate)], the pIC50 is 5.00 to 6.00. `Cn1nc(-c2ccccn2)c2c1NCCSC2c1ccc(-c2cncnc2)cc1Cl` (centres unmarked) [U.2]: the pIC50 was 5.00 to 6.00. As for `Cn1nc(-c2ccccn2)c2c1NCCSC2c1ccc(-c2ccnnc2)cc1Cl` (centres unmarked) [U.3], the pIC50 was 5.00 to 6.00. As to `Cn1nc(-c2ccccn2)c2c1NCCSC2c1ccc(-c2cncc(C#N)c2)cc1Cl` (centres unmarked) [U.4], the pIC50 is 6.00 to 7.00.

As to `Cn1nc(-c2ccccn2)c2c1NCCSC2c1ccc(-c2cnn(CCN3CCOCC3)c2)cc1Cl` (centres unmarked) [U.5], the pIC50 was 5.00 to 6.00.

As to `Cn1nc(-c2ccccn2)c2c1NCCSC2c1ccc(-c2cnn(C3CCCCO3)c2)cc1Cl` (centres unmarked) [U.6], the pIC50 is 6.00 to 7.00. In the case of `Cn1nc(-c2ccccn2)c2c1NCCSC2c1ccc(-c2cncc(C(N)=O)c2)cc1Cl` (centres unmarked) [U.7], the pIC50 is 5.00 to 6.00. On the same count and under the same terms, then `CNC(=O)c1cncc(-c2ccc(C3SCCNc4c3c(-c3ccccn3)nn4C)c(Cl)c2)c1` (centres unmarked) [U.8], with 5.00 to 6.00. For the molecule `Cn1nc(-c2ccccn2)c2c1NCCSC2c1ccc(-c2ccncc2C#N)cc1Cl` (centres unmarked) [U.9], the pIC50 is 6.00 to 7.00.

Consider `Cn1nc(-c2ccccn2)c2c1NCCSC2c1ccc(-c2cnccc2C#N)cc1Cl` (centres unmarked) [U.10], for which the pIC50 was 6.00 to 7.00. With `Cn1nc(-c2ccccn2)c2c1NCCSC2c1ccc(-c2cnc3nccnc3c2)cc1Cl` (centres unmarked) [U.11], the pIC50 was 5.00 to 6.00. With `Cn1nc(-c2ccccn2)c2c1NCCSC2c1ccc(-c2cncc(C(=O)N3CCOCC3)c2)cc1Cl` (centres unmarked) [U.12], the pIC50 is 6.00 to 7.00. On the same count and under the same terms, the figure for `Cn1nc(-c2ccccn2)c2c1NCCSC2c1ccc(-c2ccc(S(C)(=O)=O)nc2)cc1Cl` (centres unmarked) [U.13] is 6.00 to 7.00; for `CC(=O)N1CCN(c2ccc(-c3ccc(C4SCCNc5c4c(-c4ccccn4)nn5C)c(Cl)c3)cn2)CC1` (centres unmarked) [U.14] it is 5.00 to 6.00; for `COCCn1cc(-c2ccc(C3SCCNc4c3c(-c3ccccn3)nn4C)c(Cl)c2)cn1` (centres unmarked) [U.15] it is 5.00 to 6.00. Take `Cn1nc(-c2ccccn2)c2c1NCCSC2c1ccc(-c2cnn(CCC#N)c2)cc1Cl` (centres unmarked) [U.16]: the pIC50 was 6.00 to 7.00. `Cn1nc(-c2ccccn2)c2c1NCCSC2c1ccc(-c2cnn(CC(N)=O)c2)cc1Cl` (centres unmarked) [U.17]: the pIC50 was 6.00 to 7.00. The same measure, in the same setting: then `Cn1nc(-c2ccccn2)c2c1NCCSC2c1ccc(-c2cnn(CCC(N)=O)c2)cc1Cl` (centres unmarked) [U.18], with 6.00 to 7.00; and `Cn1nc(-c2ccccn2)c2c1NCCSC2c1ccc(-c2cnc(N3CCOCC3)nc2)cc1Cl` (centres unmarked) [U.19], with 5.00 to 6.00.
